Measured values as given in patent publication US6355799B1, “Substituted benzene compounds, process for their preparation, and herbicidal and defoliant compositions containing them” (ISK Americas Incorporated, priority 1997, dated 2002).

How the values were obtained:
Assay type in all cases: in vivo
[1] = tested on: redroot pigweed (Amaranthus retroflexus, AMARE); assay: Pre-emerge test, greenhouse herbicide activity screening; settings: 63 g ai/ha, rated 14 days after application, 0 = no damage, 100 = complete death
How it was run: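 Plants grown in 10 cm pots of sandy loam mix received acetone-dissolved compounds through a moving flat-fan nozzle. Doses ranged from 15 to 1000 g ai/ha. Pre-emerge pots were seeded one day earlier, post-emerge pots 8–21 days earlier. Fourteen days on, each pot was graded 0–100 for damage.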

[2] = tested on: barnyardgrass (Echinochloa crus-galli, ECHCG); assay: as above; settings: 63 g ai/ha, rated 14 days after application, 0 = no damage, 100 = complete death
How it was run: (§1)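 Herbicidal damage is scored 0 (none) to 100 (complete plant death) two weeks after a simulated field spray. Rates span 15–1000 g ai/ha, delivered in acetone at 187 l/ha. For post-emergence treatments, plants have 2–3 leaves and the spray carries 0.25% v/v non-ionic surfactant.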

[3] = tested on: common ragweed (Ambrosia artemisizfolia L., AMBEL); assay: as above; settings: 63 g ai/ha, rated 14 days after application, 0 = no damage, 100 = complete death
How it was run: as §1

[4] = tested on: green foxtail (Setaria viridis, SETVI); assay: as above; settings: 63 g ai/ha, rated 14 days after application, 0 = no damage, 100 = complete death
How it was run: as §1

[5] = tested on: ivyleaf morningglory (Ipomoea hederacea, IPOHE); assay: as above; settings: 63 g ai/ha, rated 14 days after application, 0 = no damage, 100 = complete death
How it was run: as §1

[6] = tested on: johnsongrass (Sorghum halepense, SORHA); assay: as above; settings: 63 g ai/ha, rated 14 days after application, 0 = no damage, 100 = complete death
How it was run: as §1

[7] = tested on: lambsquarters (Chenopodium album, CHEAL); assay: as above; settings: 63 g ai/ha, rated 14 days after application, 0 = no damage, 100 = complete death
How it was run: as §1

[8] = tested on: large crabgrass (Digitaria sanguinalis, DIGSA); assay: as above; settings: 63 g ai/ha, rated 14 days after application, 0 = no damage, 100 = complete death
How it was run: as §1

[9] = tested on: sicklepod (Cassia obtusifolia, CASOB); assay: as above; settings: 63 g ai/ha, rated 14 days after application, 0 = no damage, 100 = complete death
How it was run: as §1

[10] = tested on: velvetleaf (Abutilon theophrasti, ABUTH); assay: as above; settings: 63 g ai/ha, rated 14 days after application, 0 = no damage, 100 = complete death
How it was run: as §1

[11] = tested on: field corn (Zea mays L., var. Dekalb 535, CORN); assay: Pre-emerge test, crop safety; settings: 63 g ai/ha, rated 14 days after application, 0 = no damage, 100 = complete death
How it was run: (§2)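 Fourteen days after spraying, crop and weed injury was graded visually from 0, no effect, to 100, every plant dead. Test substances were dissolved in acetone and applied at 15–1000 g ai/ha with a flat-fan nozzle. Application was either pre-emergence, one day after sowing, or post-emergence at the 2–3 leaf stage.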

[12] = tested on: upland rice (Oryza sp., var. Tebonnet, RICE); assay: Pre-emerge test, crop safety; settings: 63 g ai/ha, rated 14 days after application, 0 = no damage, 100 = complete death
How it was run: as §2

[13] = tested on: barnyardgrass (Echinochloa crus-galli, ECHCG); assay: Post-emerge test, greenhouse herbicide activity screening; settings: 63 g ai/ha, 14 days after application
How it was run: (§3)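 Compounds in acetone were track-sprayed at 187 l/ha, 15–1000 g ai/ha, onto sandy loam pots. Pre-emerge seeds were sown one day before spraying, with surface watering afterwards. Post-emerge plants were at the 2–3 leaf stage and sprayed with 0.25% v/v non-ionic surfactant. Injury was rated 0–100 at 14 days.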

[14] = tested on: common ragweed (Ambrosia artemisizfolia L., AMBEL); assay: as above; settings: 63 g ai/ha, 14 days after application
How it was run: as §3

[15] = tested on: green foxtail (Setaria viridis, SETVI); assay: as above; settings: 63 g ai/ha, 14 days after application
How it was run: as §3

[16] = tested on: ivyleaf morningglory (Ipomoea hederacea, IPOHE); assay: as above; settings: 63 g ai/ha, 14 days after application
How it was run: as §3

[17] = tested on: johnsongrass (Sorghum halepense, SORHA); assay: as above; settings: 63 g ai/ha, 14 days after application
How it was run: as §3

[18] = tested on: lambsquarters (Chenopodium album, CHEAL); assay: as above; settings: 63 g ai/ha, 14 days after application
How it was run: as §3

[19] = tested on: large crabgrass (Digitaria sanguinalis, DIGSA); assay: as above; settings: 63 g ai/ha, 14 days after application
How it was run: as §3

[20] = tested on: redroot pigweed (Amaranthus retroflexus, AMARE); assay: as above; settings: 63 g ai/ha, 14 days after application
How it was run: as §3

[21] = tested on: sicklepod (Cassia obtusifolia, CASOB); assay: as above; settings: 63 g ai/ha, 14 days after application
How it was run: as §3

[22] = tested on: velvetleaf (Abutilon theophrasti, ABUTH); assay: as above; settings: 63 g ai/ha, 14 days after application
How it was run: as §3

[23] = tested on: field corn (Zea mays L., var. Dekalb 535, CORN); assay: Post-emerge test, crop safety; settings: 63 g ai/ha, 14 days after application
How it was run: as §1

[24] = tested on: upland rice (Oryza sp., var. Tebonnet, RICE); assay: Post-emerge test, crop safety; settings: 63 g ai/ha, 14 days after application
How it was run: as §1

[25] = phytotoxicity rating 0-100 (0 no damage, 100 complete death)
[26] = post-emerge, rating scale 0-100

COc1c(Cl)cc(F)c(-n2c(=O)c([N+](=O)[O-])c(C(F)(F)F)n(C)c2=O)c1[N+](=O)[O-] [Compound 1-9]
Pre-emerge Herbicidal Activity AMARE (phytotoxicity rating, scale 0-100) ([1]; pre-emerge): 100 | Pre-emerge Herbicidal Activity ECHCG (phytotoxicity rating, scale 0-100) ([2]; pre-emerge): 100 | Pre-emerge Herbicidal Activity AMBEL (phytotoxicity rating, scale 0-100) ([3]; pre-emerge): 100 | Pre-emerge Herbicidal Activity SETVI (phytotoxicity rating, scale 0-100) ([4]; pre-emerge): 100 | Pre-emerge Herbicidal Activity IPOHE (phytotoxicity rating, scale 0-100) ([5]; pre-emerge): 100 | Pre-emerge Herbicidal Activity SORHA (phytotoxicity rating, scale 0-100) ([6]; pre-emerge): 100 | Pre-emerge Herbicidal Activity CHEAL (phytotoxicity rating, scale 0-100) ([7]; pre-emerge): 100 | Pre-emerge Herbicidal Activity DIGSA (phytotoxicity rating, scale 0-100) ([8]; pre-emerge): 100 | Pre-emerge Herbicidal Activity CASOB (phytotoxicity rating, scale 0-100) ([9]; pre-emerge): 100 | Pre-emerge Herbicidal Activity ABUTH (phytotoxicity rating, scale 0-100) ([10]; pre-emerge): 100 | Pre-emerge crop damage CORN (phytotoxicity rating, scale 0-100) ([11]; pre-emerge): 90 | Pre-emerge crop damage RICE (phytotoxicity rating, scale 0-100) ([12]; pre-emerge): 95 | Post-emerge Herbicidal Activity ECHCG [13, 25]: 70 | Post-emerge Herbicidal Activity AMBEL [14, 25]: 90 | Post-emerge Herbicidal Activity SETVI [15, 25]: 90 | Post-emerge Herbicidal Activity IPOHE [16, 25]: 100 | Post-emerge Herbicidal Activity SORHA [17, 25]: 90 | Post-emerge Herbicidal Activity CHEAL [18, 25]: 100 | Post-emerge Herbicidal Activity DIGSA [19, 25]: 90 | Post-emerge Herbicidal Activity AMARE [20, 25]: 100 | Post-emerge Herbicidal Activity CASOB [21, 25]: 90 | Post-emerge Herbicidal Activity ABUTH [22, 25]: 100 | Post-emerge Herbicidal Activity CORN (crop damage) [23, 25]: 30 | Post-emerge Herbicidal Activity RICE (crop damage) [24, 25]: 40

COc1c(Cl)cc(F)c(-n2c(=O)cc(C(F)(F)F)n(C)c2=O)c1NC(=O)c1c(F)c(F)c(F)c(F)c1F [2-52]
Pre-emerge Herbicidal Activity, phytotoxicity rating (0-100), AMARE [1]: 100 | Pre-emerge Herbicidal Activity, phytotoxicity rating (0-100), ECHCG [2]: 0 | Pre-emerge Herbicidal Activity, phytotoxicity rating (0-100), AMBEL [3]: 0 | Pre-emerge Herbicidal Activity, phytotoxicity rating (0-100), SETVI [4]: 40 | Pre-emerge Herbicidal Activity, phytotoxicity rating (0-100), IPOHE [5]: 0 | Pre-emerge Herbicidal Activity, phytotoxicity rating (0-100), SORHA [6]: 0 | Pre-emerge Herbicidal Activity, phytotoxicity rating (0-100), CHEAL [7]: 50 | Pre-emerge Herbicidal Activity, phytotoxicity rating (0-100), DIGSA [8]: 0 | Pre-emerge Herbicidal Activity, phytotoxicity rating (0-100), CASOB [9]: 0 | Pre-emerge Herbicidal Activity, phytotoxicity rating (0-100), ABUTH [10]: 10 | Pre-emerge phytotoxicity rating (0-100), crop damage, CORN [11]: 0 | Pre-emerge phytotoxicity rating (0-100), crop damage, RICE [12]: 0 | phytotoxicity rating ECHCG [13, 26]: 0 | phytotoxicity rating AMBEL [14, 26]: 20 | phytotoxicity rating SETVI [15, 26]: 0 | phytotoxicity rating IPOHE [16, 26]: 10 | phytotoxicity rating SORHA [17, 26]: 0 | phytotoxicity rating CHEAL [18, 26]: 10 | phytotoxicity rating DIGSA [19, 26]: 0 | phytotoxicity rating AMARE [20, 26]: 30 | phytotoxicity rating CASOB [21, 26]: 0 | phytotoxicity rating ABUTH [22, 26]: 30 | phytotoxicity rating CORN [23, 26]: 0 | phytotoxicity rating RICE [24, 26]: 0
